Results published in paper PMC11190223, “Identification of sulfakinin receptor regulating feeding behavior and hemolymph trehalose homeostasis in the silkworm, Bombyx mori” (Scientific Reports, 2024).
Where no end group is shown, it is not given here. [ ]: non-standard residue; d: D form. sY = N[C@@H](Cc1ccc(OS(=O)(=O)O)cc1)C(=O)O

Experiments:
BNGR-A9 [1] = assay: CRE-driven luciferase reporter assay, BNGR-A9; assay type: cell-based, Bombyx mori; conditions: 4 h, at least three independent experiments; for EC50: dose-response
Text: (§1) The entire coding region of BNGR-A9 (NM_001134272.1) was obtained by PCR and subsequently cloned into pEGFP-N1 and pCMV-Flag vectors using the primers listed in Table S1. The Flag-BNGR-A9 construct was generated for functional assays, including CRE-luciferase, calcium mobilization, and ERK phosphorylation assays, while BNGR-A9-EGFP was created for receptor visualization purposes. Additionally, for expression in the BmN cell system, the BNGR-A9 gene was inserted into the pIZT/V5-His vector. All constructs were validated by DNA sequencing.
(§2) HEK293 cells were cultured with Dulbecco’s Modified Eagle’s Medium (Gibco, NY, USA) supplied with 10% Fetal bovine serum (Gibco, NY, USA) in a 37 °C humidified incubator containing 5% CO2. BmN cells were maintained in TC 100 insect medium (AppliChem, Darmstadt, Germany) supplied with 10% Fetal bovine serum in a 28 °C incubator. Both HEK293 and BmN cells were transfected with X-tremeGENE (Roche, Mannheim, Germany) according to the manufacturer’s instruction.
HEK293 and BmN cells were transfected with the different Bombyx receptors (Flag-BNGR-A9, -A24, -A32, or A33 for HEK293 cells, and pIZT-BNGR-A9, -A24, -A32, or A33 for BmN cells) along with the corresponding CRE-reporter plasmid. When cell confluence reached 90–95%, they were treated with various concentrations of Bombyx mori neuropeptides, with or without forskolin. Following a 4-h incubation period, cells were lysed, and luciferase activities were determined using a firefly luciferase kit (Beyotime, Shanghai, China).
(§3) Data analysis was conducted using GraphPad Prism (San Diego, CA), with results presented as mean ± SEM. Statistical significance was assessed through Student’s t-test or two-way ANOVA with multiple comparisons, with p values below 0.05 denoted as significant (*p < 0.05, **p < 0.01, ***p < 0.001). Dose–response curves were generated via non-linear curve fitting. Adobe Photoshop was used to process images, ensuring uniform brightness and contrast settings across all conditions. All images and data provided represent findings from a minimum of three independent experiments.

BNGR-A9 [2] = assay: Fura-2 AM-based Ca^2+ mobilization assay, BNGR-A9; assay type: cell-based, Bombyx mori
Text: as §1, §2
To monitor the changes of intracellular calcium, Fura-2 AM (Dojindo, Kumamoto, Japan) was utilized as the calcium indicator, following the methodology outlined in a previous study. Briefly, HEK293 cells stably expressing Flag-BNGR-A9 were exposed to various concentrations of Bombyx mori neuropeptides and measured using a fluorescence spectrometer (Tecan Infinite 200 PRO). Calcium levels were determined by the ratio of fluorescence excitation at 340 nm to that at 380 nm. If necessary, cells were pre-treated with U73122, FR900359, or KT5720 for 30 min prior to the initiation of the experiment. For assays involving BmN cells expressing pIZT-BNGR-A9, the procedures were conducted at 28 °C, and HBSS was replaced with HBM (Hepes-Buffered Medium: 140 mM NaCl, 5 mM KCl, 1 mM MgCl2, 1.2 mM Na2HPO4, 5 mM NaHCO3, 10 mM glucose, and 20 mM HEPES–NaOH, CaCl2 (1 mM), pH 6.2).
as §3

BNGR-A9 [3] = assay: Receptor internalization assay, BNGR-A9-EGFP; assay type: cell-based, Bombyx mori; conditions: BNGR-A9-EGFP stably expressing HEK293 cells; 100 nM, 30 min; fluorescence microscopy
Text: as §1
BNGR-A9-EGFP stably expressing HEK293 cells were seeded onto coverslips and incubated overnight under normal growth conditions. Subsequently, the cells were starved with fresh serum-free DMEM for 1 h and treated with either 100 nM BmsSK or BmnsSK. After a 30-min incubation period, the cells were washed three times with ice-cold PBS and fixed with 3% paraformaldehyde for 10 min at room temperature. The images were taken by a fluorescence microscopy (Leica, Germany).

BNGR-A9 [4] = assay: IP3 ELISA in BNGR-A9-expressing HEK293 cells; assay type: cell-based, Bombyx mori; conditions: 1 μM, 1 h
Procedure: Figure 6 Bombyx sulfated-sulfakinin mediated activation of BNGR-A9 via Gαq signaling pathway. (A and B) Effects of Gαq inhibitor FR900359 (1 μM) on the CRE-driven luciferase activities in BNGR-A9 expressing HEK293 (A) and BmN (B) cells. BNGR-A9 stable transfected cells were pretreated with FR900359 (1 μM) for 30 min and challenged with 100 nM BmsSK for 4 h. (C) Accumulation of IP3 in HEK293 cells expressing BNGR-A9 in response to Bombyx neuropeptides was assessed. Cells were pre-treated with serum-free DMEM for 1 h, followed by stimulation with 1 μM of the indicated Bombyx neuropeptides for 1 h. The level of IP3 in the supernatant was then determined using the IP3 immunoassay detection kit. (D, E) Effects of Gαq/PLC inhibitors on Flag-BNGR-A9 mediated increase of intracellular Ca^2+ level. Flag-BNGR-A9 expressing HEK293 (D) and BmN (E) cells were pretreated with Gαq inhibitorFR900359 (1 μM), U73122 (5 μM) for 30 min, and incubated with Fura-2 AM for 30 min, followed by challenging with 100 nM BmsSK. (F, G) effects of protein kinase A (PKA) inhibitor KT5720 on BmsSK initiated Ca^2+ in Flag-BNGR-A9-expressing cells. […] After 30 min incubation with Fura-2 AM, the cells were treated with 100 nM BmsSK, and detected with a fluorescence spectrometer. […] Data were analyzed by using a Student’s t-test (*p < 0.05; **p < 0.01). […]

BNGR-A9 [5] = assay: ERK1/2 phosphorylation (western blot), BNGR-A9-expressing HEK293 cells; assay type: cell-based, Bombyx mori
[6] = Hemolymph trehalose determination; assay type: in vivo, Bombyx mori
Procedure: Silkworm larvae were anesthetized by cooling on ice, after which hemolymph was collected using a micropipette from an incision made at the abdominal leg. Approximately 5 mg of phenylthiourea (to achieve a final concentration of 2.5% w/v) was added to the hemolymph in a 1.5 ml Eppendorf tube to inhibit clotting. Hemolymph samples from 10 insects were then centrifuged at 12,000 rpm for 10 min at 4 °C to sediment any particulates. For trehalose measurement, the hemolymph underwent pretreatment with trehalase (Megazyme, Chicago, US), following the manufacturer’s protocol. Subsequently, the sugar concentration in the hemolymph was assessed using a glucose oxidase–peroxidase kit (Shanghai Rongsheng Biotech, China).

BmsSK: Bombyx mori sulfated-sulfakinin, synthetic; sulfated version of GDDTFDD^8YGHLRF-NH2 (GDDTFDD[sY]GHLRF-NH2; N-terminus assumed; SMILES CC(C)C[C@H](NC(=O)[C@H](Cc1c[nH]cn1)NC(=O)CNC(=O)[C@H](Cc1ccc(OS(=O)(=O)O)cc1)NC(=O)[C@H](CC(=O)O)NC(=O)[C@H](CC(=O)O)NC(=O)[C@H](Cc1ccccc1)NC(=O)[C@@H](NC(=O)[C@H](CC(=O)O)NC(=O)[C@H](CC(=O)O)NC(=O)CN)[C@@H](C)O)C(=O)N[C@@H](CCCNC(=N)N)C(=O)N[C@@H](Cc1ccccc1)C(N)=O)
EC50 (BNGR-A9 [1]; BmN cells stably expressing BNGR-A9): 60 nM | Activation of BNGR-A9 (CRE-driven luciferase activity) (BNGR-A9 [1]; HEK293 and BmN cells, 1 μM peptide, with or without forskolin (5 μM)): could activate BNGR-A9 | EC50 (BNGR-A9 [1]; HEK293 cells stably expressing BNGR-A9): 73.3 nM | Ca^2+ response (BNGR-A9 [2]; 1 μM peptide, Fura-2 AM, BNGR-A9-expressing HEK293 and BmN cells, three independent experiments): triggered responses in BNGR-A9-expressing cells | Ca^2+ response compared to BmnsSK (BNGR-A9 [2]; BNGR-A9-expressing HEK293 and BmN cells, Fura-2 AM): significantly greater Ca^2+ response | EC50 (BNGR-A9 [2]; BmN cells expressing BNGR-A9, Fura-2 AM, 28 °C, HBM pH 6.2, three independent experiments): 51.4 nM | EC50 (BNGR-A9 [2]; HEK293 cells expressing BNGR-A9, Fura-2 AM, three independent experiments): 29 nM | Receptor internalization (BNGR-A9 [3]): rapid and significant receptor redistribution within the cytoplasm | Intracellular IP3 level (BNGR-A9 [4]): significant elevation | ERK1/2 phosphorylation (BNGR-A9 [5]; HEK293 cells expressing BNGR-A9, serum-starved 1 h): quick and dose-dependent increase in ERK1/2 phosphorylation | Time of peak ERK1/2 phosphorylation (BNGR-A9 [5]; HEK293 cells, 10 nM BmsSK time course (Fig. 7A)): 5 min | Hemolymph trehalose level ([6]; BmsSK final 10 nM, 24 h after EGFP dsRNA injection, hemolymph collected 24 h later): significant increase in trehalose levels | Hemolymph trehalose level ([6]; following BmsSK injection (restated in discussion)): significant rise in circulating hemolymph trehalose
